# Legend:
# [1] = test system: RENCA (VHL wildtype) orthotopic tumour; test: Tumour growth inhibition by weight of RENCA orthotopic tumour bearing kidneys; format: in vivo, Balb/c mice; conditions: kidneys weighed on Day 10 of treatment; Pazopanib 30 mg/kg p.o. daily, BNC105 16 mg/kg i.v. Days 2 and 9; FIG. 3
# Procedure: FIG. 3 Right kidney weight (mg)±SEM of mice bearing RENCA kidney tumours treated with BNC105P, Pazopanib or BNC105P+Pazopanib.
# RENCA (VHL wildtype) orthotopic tumour bearing kidneys from Balb/c mice were weighed on Day 10 day of treatment (Pazopanib 30 mg/kg, p.o. Daily, BNC105 16 mg/kg i.v. Days 2 and 9).
# [2] = test system: MDA-MB-231 breast carcinoma; test: Tumour hypoxia / disruption of tumour vasculature in MDA-MB-231 tumours; format: in vivo
# [3] = test system: Calu-6 lung carcinoma; test: Tumour hypoxia / disruption of tumour vasculature in Calu-6 tumours; format: in vivo
# [4] = test system: Colo205 colon carcinoma; test: Tumour hypoxia / disruption of tumour vasculature in Colo205 tumours; format: in vivo
# [5] = test system: DU-145 prostate carcinoma; test: Tumour hypoxia / disruption of tumour vasculature in DU-145 tumours; format: in vivo
# [6] = test system: RENCA (VHL wildtype) orthotopic tumour; test: Immunohistochemistry of unfolded protein response markers in RENCA orthotopic tumour sections; format: in vivo, Balb/c mice; conditions: 24 hours after a single dose i.v. 32 mg/kg
# Description: (Fast Red detection on hematoxylin)
# [7] = test system: tumour endothelial cells (activated) and normal endothelial cells (quiescent); test: Selectivity between activated (tumour) and quiescent (normal) endothelial cells; format: cell-based
# Description: An important aspect of the compounds of formulae I, Ia, Ib, II and III is the combination of the specific C-6 and C-7 substituents together with the C-2 Q-group (especially C-2 methyl) which appears to confer greater potency and selectivity when compared to other structurally related TPI compounds. In these compounds selectivity is not simply reliant on the predisposition of tumour vasculature towards collapse when challenged with the VDA but on a capacity of the VDA to distinguish between tumour endothelial cells and normal endothelial cells. Normal endothelial cells, found in healthy tissues, are in a “quiescent” state and tumour endothelial cells are in an “activated” state.
# [8] = test system: RENCA renal tumours; test: Vascular shutdown and hypoxia response markers in RENCA renal tumours; format: in vivo
# [9] = test system: tumor mass; test: Histological changes caused by BNC105 anti-tumor action (tumor necrosis); format: in vivo; conditions: histology; peripheral regions remain viable
# Description: Based on investigations on the histological changes caused by BNC105 anti-tumor action, it was established that >95% of the tumor mass becomes necrotic, while peripheral regions remain viable. […] Among these is the angiogenesis growth factor VEGF. The present inventors sought to investigate the potential therapeutic benefit of combining BNC105 with an inhibitor of the VEGF/VEGFR2 signalling pathway.
# [10] = test system: RENCA orthotopic tumour; test: TUNEL assay of necrosis in RENCA orthotopic tumour sections; format: in vivo, Balb/c mice; conditions: 4 hours after dosing BNC105 on Day 9; Bortezomib 0.5 mg/kg iv Days 1, 5, 8; BNC105 32 mg/kg iv Days 2 and 9
# Procedure: RENCA orthotopic tumour bearing kidneys from Balb/c mice were photographed 4 hours after dosing BNC105 on Day 9 of treatment (Bortezomib 0.5 mg/kg iv Days 1, 5, 8, BNC105 32 mg/kg iv Days 2 and 9). Formalin fixed and paraffin embedded sections were stained using a TUNEL assay (Roche) to visualize cell necrosis.
compound,measurement,setting,value
"Cc1ccc(Nc2nccc(N(C)c3ccc4c(C)n(C)nc4c3)n2)cc1S(N)(=O)=O [Pazopanib, reference compound]",tumour growth inhibition,[1],19%
"COc1cc(C(=O)c2c(C)oc3c(OP(=O)([O-])[O-])c(OC)ccc23)cc(OC)c1OC.[Na+].[Na+] [BNC105P, Disodium 6-methoxy-2-methyl-3-(3,4,5-trimethoxybenzoyl)benzofuran-7-yl phosphate]",tumour hypoxia by disruption of tumour vasculature,[2]; MDA-MB-231 breast carcinoma,increase tumour hypoxia
same,apoptotic cells,[2]; MDA-MB-231 tumours,increase in apoptotic cells
same,blood vessel integrity,[2]; MDA-MB-231 tumours,damage of blood vessel integrity
same,release of angiogenic growth factor VEGF,[2]; MDA-MB-231 tumours,release of the angiogenic growth factor VEGF
same,tumour endothelial cells,[2]; MDA-MB-231 tumours,destruction of tumour endothelial cells
same,tumour hypoxia by disruption of tumour vasculature,[3],increase tumour hypoxia
same,tumour hypoxia by disruption of tumour vasculature,[4],increase tumour hypoxia
same,tumour hypoxia by disruption of tumour vasculature,[5],increase tumour hypoxia
same,unfolded protein response markers PERK and phosphorylation of eIF2α,[6],upregulation of unfolded protein response markers
"COc1cc(C(=O)c2c(C)oc3c(O)c(OC)ccc23)cc(OC)c1OC [BNC105, 2-Methyl-7-hydroxy-3-(3,4,5-trimethoxybenzoyl)-6-methoxybenzofuran]",potency against quiescent versus activated endothelial cells (selectivity),[7],show selectivity towards tumor endothelial cells (activated) over normal endothelial cells (quiescent)
same,vascular shutdown,[8],induced vascular shutdown
same,CXCL12 and MMP-9 levels,[8]; induced hypoxia,increase in CXCL12 and MMP-9
same,"GLUT1, HIF-1a, PERK, eIF2a and VEGF levels",[8]; on vascular shutdown,"increase GLUT1, HIF-1a, PERK, eIF2a and VEGF"
same,tumor mass that becomes necrotic,[9],> 95%
same,tumour growth inhibition,[1],21%
same,tumor necrosis (TUNEL staining),[10],Very little tumor necrosis
"COc1ccc(/C=C\c2cc(OC)c(OC)c(OC)c2)cc1O [Combretastatin A4 (CA4), Combretastatin A4, reference compound]",potency against quiescent versus activated endothelial cells (selectivity),[7],equally potent against quiescent and activated endothelial cells
"CC(C)C[C@H](NC(=O)[C@H](Cc1ccccc1)NC(=O)c1cnccn1)B(O)O [Bortezomib, reference compound]",tumor necrosis (TUNEL staining),[10],Very little tumor necrosis
